Assay results from patent US20230355649A1, “FORMULATIONS OF ANTI-VIRAL COMPOUNDS” (priority 2020, published 2023).
≈ marks a conversion by molar mass, not a printed value. Where two headings read alike, the source gives them in different places.

Columns and labels:
[1] = assay type: physicochemical
Experimental: In order to determine the stability of the prodrug Remdesivir at different pH, the stability of prodrug Remdesivir was tested over time at physiologically relevant pH of gastrointestinal media. The degradation of Remdesivir was determined by measuring the amount of unchanged Remdesivir using a suitable high pressure liquid chromatographic (HPLC) method and comparing the results against a pure reference sample of Remdesivir.

[2] = in vivo, iv; cited from earlier work
[3] = Remdesivir solubility in co-solvents; assay type: physicochemical
physchem [4] = assay type: physicochemical; settings: aqueous with cosolvent or surfactant or cyclodextrin, read-out: Remdesivir Solubility
physchem [5] = assay type: physicochemical
Text: The solubility of Remdesivir was screened in a range of different acids to test the effect of pH and acidity on Remdesivir solubility.

[6] = Dissolution and solubility study, Type II dissolution apparatus; assay type: physicochemical; settings: drug substance powder in hard-gelatin capsule without excipients; 15 mg in 300 mL 0.4% Tween 80 in water, 100 rpm
Experimental: The solubility and/or dissolution of Remdesivir over time was determined for various pharmaceutical compositions using a Type II dissolution apparatus. The dissolution of the liquid formulation filled into hard-gelatin capsule and “as-is”, i.e. without being filled into the capsule shell were compared to the release of the non-formulated powder drug substance filled into the capsule, as well as the latter in combination with the solubilizing complexing agent, SBEβCD. The dissolution profiles were compared to that of acetaminophen drug substance filled into a hard-gelatin capsule. Acetaminophen has over 80% bioavailability in practice. […] At appropriate time intervals, about 1 mL aliquots of the dissolution media were withdrawn, filtered and tested using a high-pressure chromatographic assay method for Remdesivir. The area under the peak for the drug at the standard elution time was then compared against that of an external reference standard of Remdesivir to determine the concentration of dissolved Remdesivir at any given time.
Specifically, the Example formulation 1 (ES040-36) comprising Remdesivir was tested both as a solution added directly into the dissolution medium without being filled into a capsule shell to represent the release from an oral solution and also as filled into a hard-gelatin capsule. […]

human hepatocytes = assay: In vitro metabolism study of Remdesivir with human hepatocytes; assay type: in vitro ADME
Experimental: The Relative abundance (%) of metabolites post-incubation of Remdesivir (10 μM) was determined after culture with human hepatocytes (1.3 million cells/mL).
Samples were analysed by ultra-high performance liquid chromatography tandem mass spectrometry (UHPLC-MS/MS) with a quadrople time of flight mass spectrometer, for acquisition of high-resolution accurate mass data, with electrospray ionization incorporating in-line UV detection with a photodiode array detector.

[7] = in vivo, cited from earlier work
[8] = not told; cited from earlier work
[9] = system: SARS-CoV-2 infected cell lines; settings: shown in the literature; cited from earlier work
[10] = set-up: species or system Dog (Canis familiaris)/Beagle; settings: male, beagle, dog, in vivo, 20 mg/kg
Experimental: An in vivo dog study in beagles was carried out to determine the pharmacokinetic (PK) profile of Remdesivir following 1) a single intravenous (IV) infusion of a control formulation and 2) an oral (PO) dose of an Example pharmaceutical composition ES040-72 according to the present invention.
For both IV or oral (PO) administered doses, plasma samples were collected over a period of 48 hours. Further details of the plasma collection are detailed in Table 13.

[11] = set-up: species or system Dog (Canis familiaris)/Beagle; settings: dog, in vivo
Text: For both IV or oral (PO) administered doses, blood samples were collected to determine the presence of analytes in PBMCs. Further details are detailed in Table 14. [table]

## CCC(CC)COC(=O)[C@H](C)N[P@](=O)(OC[C@H]1O[C@@](C#N)(c2ccc3c(N)ncnn23)[C@H](O)[C@@H]1O)Oc1ccccc1 [Remdesivir]
[1]
  stability / degradation of Remdesivir in solution: acceptable stability and minimal degradation
[2]
  plasma concentration relative to its own EC50: rapidly declines to well below its own EC50
[3]; oil or lipid, Solubility
  solubility: 15900 µg/mL (≈ 26400 µM)
[3]; organic solvent or mixture, solvent Span 80, read-out: Solubility
  solubility: 300 µg/mL (≈ 498 µM)
Physchem [4]; Kolliphor EL (Polyoxyl 35 Castor Oil, Cremophor) 0.10 % w/w in water
  solubility: 20 µg/mL (≈ 33.2 µM)
Physchem [4]; Poloxamer P407 0.07 % w/w in water
  solubility: 6 µg/mL (≈ 9.96 µM)
Physchem [4]; TWEEN 20 (Polysorbate 20) 0.16 % w/w in water
  solubility: 16 µg/mL (≈ 26.6 µM)
Physchem [4]; TWEEN 80 (Polysorbate 80) 0.30 % w/w in water
  solubility: 33 µg/mL (≈ 54.8 µM)
Physchem [5]; pH 0.5
  solubility: 1690 µg/mL (≈ 2800 µM)
Physchem [5]; pH 0.5, aqueous buffer, Solubility
  solubility: 950 µg/mL (≈ 1580 µM)
Physchem [5]; pH 0.98, simulated gastric fluid, Solubility
  solubility: 2490 µg/mL (≈ 4130 µM)
Physchem [5]; pH 1, aqueous buffer, Solubility
  solubility: 640 µg/mL (≈ 1060 µM)
Physchem [5]; pH 1.38, simulated gastric fluid, Solubility
  solubility: 980 µg/mL (≈ 1630 µM)
Physchem [5]; pH 1.89, simulated gastric fluid, Solubility
  solubility: 340 µg/mL (≈ 564 µM)
Physchem [5]; pH 2.91, aqueous buffer, Solubility
  solubility: 5 µg/mL (≈ 8.3 µM)
Physchem [5]; pH 3.5, aqueous buffer, Solubility
  solubility: 10 µg/mL (≈ 16.6 µM)
Physchem [5]; pH 4.74, aqueous buffer, Solubility
  solubility: 1 µg/mL (≈ 1.66 µM)
Physchem [5]; pH 6.18, aqueous buffer, Solubility
  solubility: 0.9 µg/mL (≈ 1.49 µM)
Physchem [5]; pH 6.72
  solubility: 0 µg/mL
[6]
  dissolution of Remdesivir: very slow dissolution
Human hepatocytes; human, 2 h, 10 μM
  Relative abundance of analytes post-incubation with Remdesivir: 4.8%
Human hepatocytes; human, 6 h, 10 μM
  Relative abundance of analytes post-incubation with Remdesivir: 0.1%
Human hepatocytes; human, 24 h, 10 μM
  Relative abundance of analytes post-incubation with Remdesivir: 0.7%

## CC(=O)Nc1ccc(O)cc1 [Acetaminophen, acetaminophen]
[7]
  bioavailability: over 80%

## N#C[C@@]1(c2ccc3c(N)ncnn23)O[C@H](CO)[C@@H](O)[C@H]1O [GS-441524]
[8]
  permeability through the intestinal membrane: poor permeability
[9]
  in vitro activity against SARS-CoV-2 infected cell lines: considerable in vitro activity
[10]; iv
  AUCinf: 22000 ± 1950 ng·h/mL
  AUClast: 19800 ± 2510 ng·h/mL
[10]; po
  AUCinf: 21700 ± 2170 ng·h/mL
  AUClast: 21500 ± 2100 ng·h/mL
[11]
  detection in PBMC cells: detected
[7]; po
  oral bioavailability: poor oral bioavailability

## C[C@H](NP(=O)(O)OC[C@H]1O[C@@](C#N)(c2ccc3c(N)ncnn23)[C@H](O)[C@@H]1O)C(=O)O [GS-704277]
Human hepatocytes; 2 h, Remdesivir 10 μM, human hepatocytes 1.3 million cells/mL
  Relative abundance of analytes post-incubation with Remdesivir: 0.0%
Human hepatocytes; 6 h, Remdesivir 10 μM, human hepatocytes 1.3 million cells/mL
  Relative abundance of analytes post-incubation with Remdesivir: 2.4%
Human hepatocytes; 24 h, Remdesivir 10 μM, human hepatocytes 1.3 million cells/mL
  Relative abundance of analytes post-incubation with Remdesivir: 2.2%
